# Results: patent US7507727B2, “Substituted quinobenzoxazine analogs and methods of using thereof” (Cylene Pharmaceuticals, Inc., priority 2003, dated 2009)
# “And” between values parts separate entries of the source, which are not always exact repeats. Equal entries are not always repeated. Where two headings read alike, the source gives them in different places.
# Columns and labels:
# [1] = molecular target: c-Myc template DNA (c-myc quadruplex); assay: Quadruplex binding / stop assay (Taq polymerase arrest, capillary electrophoresis)
# HCT-116 = assay: Cell proliferation/cytotoxicity in HCT-116 (Table 1D); assay type: cell-based; conditions: Homo sapiens; HCT-116 cells; unit inferred
# Ramos xenograft = assay: Ramos Burkitt's lymphoma xenograft model; assay type: in vivo; conditions: FIG. 5
# Procedure: (§1) Two xenograft models for inoculation were harvested and diluted to a concentration of 50×10^6 cells/ml or 100×10^6 cells/ml. Four to six week old nude mice were injected with 0.1 ml of the cell suspension containing between 5×10^6 and 10×10^6 cells. When tumors are of a suitable size compound dosing is commenced. Tumor sizes are measured throughout the treatment period with calipers and body weights also measured.
# [2] = tested on: Salmonella typhimurium (TA97a, TA98, TA100, TA102, TA1535); conditions: positive control
# Procedure: This Mutagenicity Assessment (Ames Assay) evaluated the potential of the test article extracts to induce histidine (his) reversion in S. typhimurium (his− to his+) or tryptophan (trp) reversion in E. coli (trp− to trp+) caused by base changes or frameshift mutations in the genome of tester organisms.
# This plate incorporation assay was conducted with five strains of Salmonella typhimurium (TA97a, TA98, TA100, TA102, and TA1535) and one strain of Escherichia coli (WP2-uvrA^−) in the presence and absence of an exogenous mammalian activation system (S9). The test article was dissolved in 5% dextrose. A series of dilutions were then prepared in saline just prior to testing. A Range Finding Study was conducted for this assay to determine the appropriate doses for definitive mutagenicity assessment.
# A stock solution of test article was prepared at 20.0 mg/mL as follows: 1.0 g test article was added to 15.0 mL of 0.1 HCl for 1 minute. The test article was stirred for 15 minutes at room temperature. Next 33.0 mL of deionized water was added and allowed to stir for 30 minutes. […] Lower doses were prepared by dilution in 5% dextrose from this stock immediately prior to use. To minimize any change of degradation, the test article solutions were kept on ice after preparation and until just prior to dosing procedures. The test article was administered in vitro, through a solvent compatible with the test system.
# This assay has historically been used to detect mutation in a gene of a histidine requiring strain to produce a histidine independent strain or concordantly, to detect mutation in a gene of a tryptophan requiring strain to produce a tryptophan independent strain.
# S. typhimurium strain TA1535 and E. coli strain Wp2-uvrA^− were received from American Type Culture Collection, Manassas, Va. […] All working stocks of test strains will be confirmed for genotypic markers and acceptable reversion rates.
# Master plates of the tester strains were prepared from frozen working stocks. To create working cultures for each bacterial strain used in the assay, a single colony was transferred from the master plate into Oxoid nutrient broth and incubated, with shaking, at 37±2° C. until an optical density (at 650 nm) of 0.6-1.6 was reached. This overnight culture was used for the mutagenicity test and for genotypic confirmation. Genotype tests were performed.
# For both the dose range and mutagenicity test, a top agar consisting of 0.6% Difco agar in 0.5% NaCl was melted and a solution of 0.5 mM L-histidine/0.5 mM biotin or 0.5 mM L-tryptophan was added to the melted top agar at a ratio of 10 mL per 100 mL agar, as required. The supplemented agar was aliquotted, 2 mL per tube and held at 45-47° C. To prepare the top agar for treatment, 0.1 mL of the test article or control, 0.1 mL of the bacterial culture and 0.5 mL of phosphate buffered saline were added to the molten agar. […] Metabolic activation was provided by adding 0.5 mL of the S9 mix in place of the PBS. […] All plates were counted using an automatic image analysis system. Negative control and test article treated plates were also examined for the presence of a bacterial lawn.
# The in vitro metabolic activation system used in this assay was comprised of Sprague Dawley rat liver enzymes and a cofactor pool. […] Immediately prior to use, the S9 was thawed and mixed with a cofactor pool to contain 5% S9, 5 mM glucose 6-phosphate, 4 mM β-nicotine-adenine dinucleotide phosphate, 8 mM MgCl2 and 33 mM KCl in a 200 mM phosphate buffer at pH 7.4. The S9 was purchased from Moltox (Boone, N.C.) and maintained frozen at less than −70° C.
# For the definitive assay, three dose levels were chosen ([…], and 5.0 mg/mL). This was equivalent to 2.0, 1.0, and 0.5 mg/plate. All treatments, including negative and positive control, were plated in triplicate against test strains TA97a, TA98, TA100, TA102, TA1535, and WP2-uvrA^− in the presence and absence of metabolic activation.
# topoisomerase II = assay: Topoisomerase-II poison assay; assay type: biochemical; conditions: 1 μM; control Topoisomerase-II poison
# Text: FIG. 7 illustrates data from a toposiomerase-II poison assay, using VP-16 (Etoposide) as a control Topoisomerase-II poison.
# HeLa cells = assay: MTS cell proliferation and/or cytotoxicity assay; assay type: cell-based, Human; conditions: Homo sapiens, HeLa, 72 h, concentration at which 50% of antiproliferative cell response is seen; 3 days incubation; read-out: MTS Data Hella
# In short: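 HeLa cells seeded at 4,500 cells/well, exposed to compounds from day 1 for 3 days at 37 °C, 5% CO2. Viability by MTS/PMS (20:1) with 4 h incubation, absorbance at 490 nm. Values are concentrations giving 50% antiproliferative response.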
# HCT-116 xenograft = assay: HCT-116 colorectal cancer xenograft model; assay type: in vivo; conditions: HCT-116 model; FIG. 6
# Procedure: as §1
# CX-3543 was tested against a number of cancer xenograft models to determine the in vivo efficacy. HCT-116 and PC-3 tumor-bearing nu/nu or MiaPaCa tumor-bearing SCID mice were administered reference and testing compounds on schedules indicated in figure legends. Tumor measurements were taken with calipers every other day or twice a week starting from the first day of dosing and body weights were measured at the same time points. Tumor volumes were calculated from the standard formula, W^2×L/2. c-MYC mRNA expression was measured with QPCR from all tumor samples following the final dose. 18S ribosomal RNA was used as a housekeeper and also quantified with QPCR.
# HCT-116 cells = assay: Annexin V-Alexa 488 staining; assay type: cell-based; conditions: 0.5 uM, control
# Procedure: The following protocol was followed for this example. […] Incubate o/n or up to 24 hrs at 37° C. in CO2 incubator. […] Keep one or two untreated plates (medium only) as control plates. […] Harvest cells (collect attached as well as floating cells). Wash cells twice with cold PBS. Re-suspend cells in 1× Annexin binding buffer.
# Count cells and dilute in 1× Annexin binding buffer to ˜1×10^6 cells/0.1 ml, preparing a sufficient volume to have 100 μl per assay. Add 5 μl of the Annexin V conjugate to each 100 μl of cell suspension. Add 4 μl of propidium iodide solution (stock=1 mg/ml) to each 100 μl of cell suspension. Incubate sample at RT for 15 minutes. Add 400 μl Annexin binding buffer, mix gently and keep samples on ice. Analyze stained cells immediately by flow cytometry.
# [3] = read-out: S DATA, Table 1D, stop assay data
Compound,"IC50 [1, 3] [µM]",IC50 (HCT-116) [nM],also measured
CN1CCN(CCCNCCC(=O)N[C@@H]2CCN(c3c(F)cc4c(=O)c(C(=O)N5CCOCC5)cn5c4c3Oc3cc4c(cc3-5)oc3ccccc34)C2)CC1 [compound 1204],,,antitumor activity: efficacy (Ramos xenograft): slow tumor weight gain; toxicity (body weight) (Ramos xenograft): little body weight change
Nc1ccc2cc3ccccc3cc2c1 [2-AA],,,"FI ([2]; TA100, with S9 activation): 6.8; TA100 colony count (Rep 1-3) ([2]; TA100, with S9 activation): 655 and 857 and 949; TA100 colony count, Mean ([2]; TA100, with S9 activation): 820.3"
CN1CCCC1CCNC(=O)c1cn2c3c(c(N[C@H]4CN5CCC4CC5)c(F)cc3c1=O)Oc1cc3ccccc3cc1-2 (stereo partly drawn) [compound 1496],0.375,340,
VP-16,,,topoisomerase-II mediated DNA cleavage (topoisomerase II): formation of double-strand breaks
O=C(NCCN1CCCC1)c1cn2c3c(c(NCCCN4CCOCC4)c(F)cc3c1=O)Oc1cc3ccccc3cc1-2 [compound 494],,,"IC50 (HeLa cells): 190 nM; antitumor activity: efficacy (HCT-116 xenograft): slow tumor weight gain; toxicity (body weight) (HCT-116 xenograft): little body weight change; IC50 ([1]; read-out: Stop Data c-Myc μM, concentration at which 50% of the DNA was arrested (arrested:full-length 1:1)): 0.44 µM"
[N-]=[N+]=[N-] [Sodium Azide],,,"FI ([2]; TA100, without S9 activation): 4.9; TA100 colony count (Rep 1-3) ([2]; TA100, without S9 activation): 615 and 631 and 702; TA100 colony count, Mean ([2]; TA100, without S9 activation): 649.3"
CC[C@@]1(O)C(=O)OCc2c1cc1n(c2=O)Cc2cc3ccccc3nc2-1 [CPT],,,Annexin V / duplex DNA dye response (HCT-116 cells): mixed apoptotic/necrotic response

# Now from value to compound, other results behind:
"IC50 [1, 3] [µM]",Compound,IC50 (HCT-116) [nM],also measured
5,O=C(NCCN1CCCC1)c1cn2c3c(c(NCCCN4CCOCC4)c(F)cc3c1=O)Oc1cc(Cl)ccc1-2 [compound 1816],30,
7.5,CC(C)CN1CCN(c2c(F)cc3c(=O)c(C(=O)NCCN4CCCC4)cn4c3c2Oc2cc(Cl)ccc2-4)CC1 [compound 1826],30,
8.2,O=C(NCCN1CCCC1)c1cn2c3c(c(N4CCNCC4)c(F)cc3c1=O)Oc1cc(Cl)ccc1-2 [compound 1820],30,
2.9,CC(C)(C)OC(=O)N1CCN(c2c(F)cc3c(=O)c(C(=O)NCCN4CCCC4)cn4c3c2Oc2cc(Cl)ccc2-4)CC1 [compound 1818],40,
2.8,O=C(NCCN1CCCC1)c1cn2c3c(c(N4CCC(c5cnccn5)C4)c(F)cc3c1=O)Oc1cc(Cl)ccc1-2 (stereo not drawn) [compound 1811],200,
7.5,COc1ccc(CN2CCN(c3c(F)cc4c(=O)c(C(=O)NCCN5CCCC5)cn5c4c3Oc3cc(Cl)ccc3-5)CC2)cc1 [compound 1828],100,
4.8,CCN1CCN(c2c(F)cc3c(=O)c(C(=O)NCCN4CCCC4)cn4c3c2Oc2cc(Cl)ccc2-4)CC1 [compound 1827],10,
